Marks after values point to notes of the source that are not given here.
Tests used:
[1] = tested on: RAW 264.7 macrophages; assay: Inflammation parameters (TNF-α, NO, IL-6) in supernatant of LPS-stimulated RAW 264.7 macrophages; assay type: cell-based; conditions: 10 μM, LPS 1 μg/ml, 24 h
Description: To determine the production of cytokines, 5×10^5 RAW 264.7 macrophages were seeded in 24-well plates (0.5 ml per well). The compounds to be tested were then added (10 μM), and the macrophages were either stimulated or not through the addition of LPS (1 μg/ml) to the culture medium. After 24 hours, the levels of IL-6 and TNF-α were measured in the supernatants by ELISA using the capture and biotinylated antibodies from BD PharMingen and PrepoTech (Gonzalez-Rey et al., Gut. 2009; 58:929-939; Sánchez et al., Stem Cells. 2011; 29:251-262). The levels of NO in the supernatants at 24 hours were measured indirectly by determining the nitrite concentration in the medium using the Griess reagent (Anderson et al., Gut. 2013; 62:1131-1141). A minimum of two independent experiments and three replicates per experiment were performed for each measured value. The values are expressed as the mean±standard deviation.
In the previous assay, the levels of various inflammation parameters were measured (TNF-α, NO, and IL-6) by ELISA after treatment with RES or with compound 2 (FIGS. 3, 4, and 5).

[2] = Zebrafish embryo toxicity assay; conditions: in vivo, other: incubation of embryos with the compound, 0 to 96 hpf
Description: Twenty zebrafish embryos were incubated for each concentration of compound to be tested (1 to 4). The concentrations used of each compound are 0.1 μM, 1 μM, 10 μM, 100 μM and 1 mM. The incubation period goes from 0 to 96 hours post fertilization (hpf). A negative control of 1% DMSO and a positive control of N, N-diethylaminobenzaldehyde (DEAB) are included. After the incubation period, the LC50 (lethal dose for 50% of the animals) is calculated.

[3] = tested on: Prpf31^A216P/+ (KI) mice; assay: Prpf31 A216P/+ mice RPE degeneration model, eye drops and light damage; assay type: in vivo, mouse; conditions: for Fundus Normal (%) / Fundus Abnormal (number) / Fundus Normal (number) / Fundus Abnormal (%): 2 mM eye drops daily for two and a half months, 5,000 lux 3 h; for Fundus Abnormal (number) / Fundus Normal (number): n=10; for number of positive responses in optomotor test (visual acuity): 6 spatial frequencies 0.031-0.272 cycles/degree, vs control KI; for thickness of the retina (OCT): vs control KI group; for statistical association with normal fundi vs control KI group: chi-square / Fisher's exact test
Text: Prpf31^A216P/+ mice are a useful model for assessing the degeneration of the RPE. This model is characterized by an increase in the thickness of the Bruch membrane and accumulation of esterified cholesterol between said membrane and the RPE produced by a defect in the splicing of the mRNA of relevant genes of the visual cycle, such as RPE65 and RDH12. The accumulation of toxic products derived from retinol leads to an increase in ROS, infiltration of macrophages, and primary degeneration of the RPE. The degeneration of the RPE occurs late, at approximately 8 months of age. The phenotypic characteristics of this model can be exacerbated by exposure to intense light and are characterized primarily by accumulation of pseudo-drusenoid lesions and regions of atrophy observed in the fundus, with a loss of visual acuity and perception of contrast being observed, as well as a decrease in the amplitude of the c-wave of the ERG and a decrease in the thickness of the retina.
To evaluate the protective effect of the administration of our compounds in eye drops, we used heterozygous 6 month-old Prpf31^A216P/+ (KI) mice that were treated topically with 20 μl of the studied compounds applied directly on the corneal surface daily (L-V) for two and a half months. The compounds used were RES and compound 2, which were diluted in a solution of 13% hydroxypropyl-beta-cyclodextrin (CYCLO) in order to obtain a final concentration of 2 mM of each compound. After two and a half months of application of the eye drops with CICLO, RES, or compound 2, the mutant KI mice were exposed to a light source of 5,000 lux for 3 hours. Normal (WT) and KI mice were also exposed to intense light as test control without receiving any treatment. Subsequently, the fundus of the animals was evaluated, in addition to the visual acuity by means of the optomotor test, the thickness of the retina by means of optical coherence tomography (OCT), and the amplitude of the c-wave by ERG.
Two categories were used to quantify the macroscopic characteristics of the fundus: abnormal and normal fundus. The fundi categorized as abnormal were those in which the presence of autofluorescent pseudo-drusenoid lesions was observed (FIG. 11; arrows) or with regions of focal atrophy (FIG. 11; arrowheads). The percentage of abnormal fundi in the WT mice exposed to light (WT control) was 20%, and in the untreated KI (KI control) it was 90%. Meanwhile, this percentage was reduced to 30% in mice treated with compound 2 (KI 2) and only to 60% in both mice treated with CYCLE (KI CYCLE) and RES (KI RES) (table 1). […] These values were similar to those observed when comparing WT control and KI control (chi-square=7.35, P<0.01, Fisher's exact test P<0.05) and with a probability of obtaining a normal fundus in the WT control group of eight times greater than in the control KI (normal RR=8; IC95%=1.184-54.043).
To evaluate the thickness of the retina in vivo, a Stratus OCT (Zeiss) was used with a scanner adjusted to 6 lines of 3.45 mm each arranged radially. Six measurements were performed in each eye, upon which the retinal map was prepared (FIG. 12) with the thickness of the retina quantified from the ganglion cell layer to the RPE.
To evaluate the functional integrity of the RPE, the amplitude of the c-wave in the ERG was measured. The c-wave is defined as a positive slow wave that appears after the b-wave and is used to measure the functional integrity of the RPE. Since the amplitude of this wave can be affected by the integrity of the photoreceptors, it is best to normalize the results with the amplitude of the b-wave, for which reason a quantification was performed of the proportion of the amplitude of the c-wave between the amplitude of the b-wave (c-/b-wave ratio) (FIG. 13). […]

[4] = KI mice, 2 mM eye drops, light damage

| SMILES | IL-6 in culture medium ([1]; ELISA) | TNF-α in culture medium ([1]; ELISA) | NO in culture medium ([1]; Griess reagent) | LC50 [2] [µM] | Fundus Normal (%) ([3]; KI mice) | Fundus Abnormal (number) ([3]; KI mice) | Fundus Normal (number) ([3]; KI mice) | autofluorescent pseudo-drusenoid lesions and regions of focal atrophy in the fundus [3, 4] | number of positive responses in optomotor test (visual acuity) [3, 4] | thickness of the retina (OCT) [3, 4] | statistical association with normal fundi vs control KI group [3] | Fundus Abnormal (%) ([3]; KI mice) | Fundus Abnormal (%) ([3]; KI mice, listed as compound 2) | c-/b-wave ratio (ERG) [3, 4] | autofluorescent pseudo-drusenoid lesions and regions of focal atrophy in the fundus ([3]; KI mice, 2 mM eye drops, light damage, listed as compound 2) | RR normal (probability of normal fundus vs. KI control) ([3]; vs KI control, IC95% = 1.044-46.949) |
| --- | --- | --- | --- | --- | --- | --- | --- | --- | --- | --- | --- | --- | --- | --- | --- | --- |
| Oc1ccc(C=Cc2cc(O)cc(O)c2)cc1 [RES, resveratrol, reference compound] | significantly decreases | significantly decreases | significantly decreases | < 1000 | (40) % | 6 | 4 | areas with autofluorescent punctiform yellow-white lesions (arrows) were observed | only significant at 0.194 cycles/degree | significantly greater | no statistically significant association | – | – | – | – | – |
| CCCCCCCC(=O)OCC1OC(Oc2cc(O)cc(/C=C/c3ccc(O)cc3)c2)C(O)C(O)C1O [Compound 2, trans-resveratrol-3-O-(6′-O-octanoyl)-β-D-glucopyranoside] | similarly | – | – | < 140 | (70)* % | 3 | 7 | this type of lesion was not observed | significantly higher | significantly greater | statistically significant relationship | (30) % | 30 | significantly higher | prevented the formation | 7 |

— US11213536B2, “Acylated compounds for the treatment of ocular pathologies” (CONSEJO SUPERIOR DE INVESTIGACIONES CIENTÍFICAS, priority 2016, dated 2022)
